Patent publication US20050032854A1, “Insulin resistance improving agents” (priority 2001, published 2005)

Test system: spontaneously hypertensive rats (SHR)
Experiment: Insulin sensitivity evaluation by glucose clamp technique in spontaneously hypertensive rats (SHR)
Type: in vivo, rat
Settings: for M-value (average glucose infusion rate, index of insulin sensitivity): n=10, vehicle 5.9±0.5
Experimental: For evaluation of insulin resistance, 23-week-old spontaneously hypertensive rats (SHR) were used. Vehicle (0.5% methyl cellulose solution administration) and compound A (0.3 and 1 mg/kg/day) were orally administered for 2 weeks, after which an insulin sensitivity evaluation test by a glucose clamp technique was performed. The rats were grouped such that each parameter was leveled based on the glucose level and plasma insulin value before start of the drug administration. SHR were fasted from the evening of the day before the operation of the glucose clamp technique.
The glucose clamp technique was performed according to the following procedures. The rats were anesthetized with pentobarbital sodium (50 mg/kg i.p.) and catheters [PR45 (trademark), NATUME SEISAKUSHO CO., LTD.] for blood collection, for intravenous injection of insulin [novolin R injection 40 (trademark), Novo Nordisk Pharma Ltd.] and for intravenous injection of glucose [Otsuka glucose injection 50% (trademark), Otsuka Pharmaceutical Co., Ltd.] were each placed in the right common carotid artery, left femoral vein and right femoral vein, respectively. The glucose level was measured using a simplified glucose meter [Advantage II (trademark), Roche Diagnostics Corporation]. Using a peristaltic pump [MINIPULS 3 (trademark), Gilson Company, Inc.], insulin was constantly infused continuously at an injection rate of 40 and 20 mU/kg/min for 5 and 3 min, respectively, to afford a high insulin state, and thereafter high insulin state was maintained at 8 mU/kg/min.. Glucose was constantly infused intravenously to maintain the range of initial value±10% of blood glucose, using a different peristaltic pump. […] Glucose was constantly infused for-90 min and an average of glucose infusion rate for the period of 40 min from 50 min to 90 min after the start of the infusion was calculated and used as an index showing the insulin sensitivity (M-value). […] For statistic analysis, Williams' test was used and significance was evaluated at a risk rate of less than 2.5%.

## CCOc1nc2cccc(C(=O)O)c2n1Cc1ccc(-c2ccccc2-c2nc(=O)o[nH]2)cc1 [compound A, 2-Ethoxy-1-[[2′-(5-oxo-2,5-dihydro-1,2,4-oxadiazol-3-yl)biphenyl-4-yl]methyl]-1H-benzimidazole-7-carboxylic acid]
0.3 mg/kg/day orally for 2 weeks
  M-value (average glucose infusion rate, index of insulin sensitivity): 7.8 ± 0.5 mg/kg/min
1 mg/kg/day orally for 2 weeks
  M-value (average glucose infusion rate, index of insulin sensitivity): 8.6 ± 0.6 mg/kg/min
0.3 and 1 mg/kg/day orally for 2 weeks
  insulin sensitivity enhancing effect: dose-dependent insulin sensitivity enhancing effect
